Experimental data as given in patent publication US8703805B2 (Exelixis Patent Company LLC, priority 2005, dated 2014).

Test system: LXRα and/or LXRβ
Experiment: LXR/LXRE co-transfection assay (luciferase reporter, CV-1 cells)
Type: cell-based, human
Settings: IC50 or EC50 for LXR (LXRα and/or LXRβ, not distinguished), tested as described in Example 109, CV-1 cells
Source text: To measure the ability of compounds to activate or inhibit the transcriptional activity of LXR in a cell based assay, the co-transfection assay was used. It has been shown that LXR functions as a heterodimer with RXR. For the co-transfection assay; expression plasmids for LXR and RXR are introduced via transient transfection into mammalian cells along with a luciferase reporter plasmid that contains one copy of a DNA sequence that is bound by LXR-RXR heterodimers (LXRE; Willy, P. ad. 1995). Treatment of transfected cells with an LXR agonist increases the transcriptional activity of LXR, which is measured by an increase in luciferase activity.
CV-1 African Green Monkey Kidney Cells Co-transfection expression plasmids, comprising full-length LXRα (pCMX-h LXRα, LXRβ (pCMX-hLXRβ), or RXRα (pCMX-RXR), reporter plasmid (LXREx1-Tk-Luciferase), and control (pCMX-Galactosidase expression vector) (Willey et al. Genes & Development 91033-1045 (1995)). Transfection reagent such as FuGENE6 (Roche). 1× Cell lysis buffer (1% Triton X 100 (IT Baker X200-07), 10% Glycerol (JT Baker M778-07), 5 mM Ditriotreitol (Quantum Bioprobe DTT03; add fresh before lysing), 1 mM EGTA (Ethylene Glycol-bis(B-Amino ethyl ether)-N,N,N′,N′-Tetracetic Acid) (Sigma E-4378), 25 mM Tricine (ICN 807420) pH 7.8) 1× Luciferase assay buffer (pH at 7.8) (0.73 mM ATP, 22.3 mM Tricine, 0.11 mM EDTA, 33.3 mM DTT) 1× Luciferrin/CoA (11 mM Luciferin, 3.05 mM Coenzyme A, 10 mM HEPES) Preparation of Screening Reagents
CV-1 cells were prepared 24 hours prior to the experiment by plating them into T-175 flasks or 500 cm^2 dishes in order to achieve 70-80% confluency on the day of the transfection. The number of cells to be transfected was determined by the number of plates to be screened. each 384 well plate requires 1.92×10^6 cells or 5000 cells per well. DNA Transfection Reagent was prepared by mixing the required plasmid DNAs with a cationic lipid transfection reagent FuGENE6 (Roche) by following the instructions provided with the reagents. Optimal DNA amounts were determined empirically per cell line and size of vessel to be transfected. 10-12 mL of media was added to the DNA Transfection Reagent and this mixture was added to the cells after aspirating media from the T175 cm^2 flask. Cells were then incubated at least 5 hours at 37° C. to prepare screening cells.
Luciferase assay reagent was prepared by combining before use (per 10 mL): […], 0.54 mL of 1× Luciferrin/CoA; 0.54 mL of 0.2 M Magnesium sulfate
Assay plates were prepared by dispensing 5 μL of compound per well of a 384 well plate to achieve final compound concentration of 10 μM and no more than 1% DMSO. Media was removed from the screening cells, the cells trypsinized, harvested cells by centrifugation, counted, and plated at a density of approximately 5000 cells per well in the 384 well assay plate prepared above in a volume of about 45 μL. Assay plates containing both compounds and screening cells (50 μL in total volume) were incubated for 20 hours at 37° C.
After incubation with compounds, media was removed from the cells and lysis buffer (30 μL/well) added. After 30 minutes at ambient temperature, luciferase assay buffer (30 μL/well) was added and the assay plates read on a luminometer (PE Biosystems Northstar reader with on-board injectors, or equivalent). Plates were read immediately after addition of luciferase assay buffer.
The LXR/LXRE co-transfection assay can be used to establish the EC50/IC50 values for potency and percent activity or inhibition for efficacy. Efficacy defines the activity of a compound relative to a high control ((N-(3-((4-fluorophenyl)-(naphthalene-2-sulfonyl)amino)propyl)-2,2-dimethylpropionamide)) or a low control (DMSO/vehicle). The dose response curves are generated from an 8 point curve with concentrations differing by ½ LOG units. each point represents the average of 4 wells of data from a 384 well plate. […]

Compound	EC50 [nM]
CC(C)(O)c1cccc(-c2ccc(-c3cc(C(F)(F)F)nn3-c3c(Cl)cccc3Cl)c(Cl)c2)c1 [Example 1395, 2-(3′-chloro-4′-(1-(2,6-dichlorophenyl)-3-(trifluoromethyl)-1H-pyrazol-5-yl)biphenyl-3-yl)propan-2-ol]	< 1000
Cc1cc(-c2cccc(S(C)(=O)=O)c2)cnc1-n1nc(C(C)(C)O)c(Cl)c1-c1ccccc1Cl [Example 145, 2-(4-chloro-5-(2-chlorophenyl)-1-(3-methyl-5-(3-(methylsulfonyl)phenyl)pyridin-2-yl)-1H-pyrazol-3-yl)propan-2-ol]	< 1000
Cc1cc(-c2cccc(S(C)(=O)=O)c2)sc1-c1cc(C(C)(C)O)nn1-c1c(Cl)cccc1Cl [Example 137, 2-(1-(2,6-dichlorophenyl)-5-(3-methyl-5-(3-(methylsulfonyl)phenyl)thiophen-2-yl)-1H-pyrazol-3-yl)propan-2-ol]	< 1000
CC(C)(O)c1cc(-c2ccc(-c3cccc(S(C)(=O)=O)c3)cc2)n(-c2ncccc2C(F)(F)F)n1 [Example 1202, 2-{5-[3′-(methylsulfonyl)phenyl-4-yl]-1-[3-(trifluoromethyl)pyridin-2-yl]-1H-pyrazol-3-yl}propan-2-ol]	< 1000
CC(C)(O)c1cc(-c2cc(C(F)(F)F)nn2-c2ccccc2Cl)ccc1-c1cccc(S(C)(=O)=O)c1 [Example 1207, 2-{4-[1-(2-chlorophenyl)-3-(trifluoromethyl)-1H-pyrazol-5-yl]-3′-(methylsulfonyl)biphenyl-2-yl}propan-2-ol]	1000 to 10000
CCC(O)CS(=O)(=O)c1cccc(-c2ccc(-c3cc(C(F)(F)F)nn3-c3cc(Cl)ccc3Cl)s2)c1 (stereo not drawn) [Example 1146, 1-[(3-{5-[1-(2,5-dichlorophenyl)-3-(trifluoromethyl)-1H-pyrazol-5-yl]-2-thienyl}phenyl)sulfonyl]butan-2-ol]	< 1000
CC(C)CNC(=O)c1cc(-c2ccc(-c3cccc(S(C)(=O)=O)c3)cc2Cl)n(-c2cccnc2C(F)(F)F)n1 [Example 1388, 5-(3-chloro-3′-(methylsulfonyl)biphenyl-4-yl)-N-isobutyl-1-(2-(trifluoromethyl)pyridin-3-yl)-1H-pyrazole-3-carboxamide]	< 1000
CC(=O)c1cc(-c2ccc(-c3cccc(S(C)(=O)=O)c3)s2)n(-c2ccccc2)n1 [Example 1268, 1-(5-{5-[3-(methylsulfonyl)phenyl]-2-thienyl}-1-phenyl-1H-pyrazol-3-yl)ethanone]	< 1000
CC(C)(O)c1nn(-c2c(Cl)cccc2Cl)c(-c2ccc(-c3cccc(S(C)(=O)=O)c3)cc2)c1Cl [Example 138, 2-(4-chloro-1-(2,6-dichlorophenyl)-5-(3′-(methylsulfonyl)biphenyl-4-yl)-1H-pyrazol-3-yl)propan-2-ol]	< 1000
CC(C)(O)c1ccc(-c2ccc(-c3cc(C(F)(F)F)nn3-c3ccccc3Cl)s2)cc1 [Example 1241, 2-(4-{5-[1-(2-chlorophenyl)-3-(trifluoromethyl)-1H-pyrazol-5-yl]-2-thienyl}phenyl)propan-2-ol]	1000 to 10000
CC(C)(O)c1cccc(-c2ccc(-c3cc(C(F)(F)F)nn3-c3ncccc3C(F)(F)F)s2)c1 [Example 1252, 2-[3-(5-{3-(trifluoromethyl)-1-[3-(trifluoromethyl)pyridin-2-yl]-1H-pyrazol-5-yl}-2-thienyl)phenyl]propan-2-ol]	1000 to 10000
CC(C)(O)c1cc(-c2ccc(-c3ccc(C(F)(F)F)cc3Cl)cc2)n(-c2ccccc2Cl)n1 [Example 1288, 2-{1-(2-chlorophenyl)-5-[2′-chloro-4′-(trifluoromethyl)biphenyl-4-yl]-1H-pyrazol-3-yl}propan-2-ol]	1000 to 10000
CC(C)(O)c1nn(-c2ccc(-c3cccc(S(C)(=O)=O)c3)cc2Cl)c(-c2c(Cl)cccc2Cl)c1Cl [Example 1414, 2-(4-chloro-1-(3-chloro-3′-(methylsulfonyl)biphenyl-4-yl)-5-(2,6-dichlorophenyl)-1H-pyrazol-3-yl)propan-2-ol]	< 1000
CC(C)(O)c1cccc(-c2ccc(-c3cc(C(=O)NCC(F)(F)F)nn3-c3ccccc3Cl)s2)c1 [Example 1276, 1-(2-chlorophenyl)-5-{5-[3-(1-hydroxy-1-methylethyl)phenyl]-2-thienyl}-N-(2,2,2-trifluoroethyl)-1H-pyrazole-3-carboxamide]	1000 to 10000
CC(C)(O)c1cc(-c2ccc(C(=O)N3CCC3)cc2)n(-c2ccccc2Cl)n1 [Example 80]	> 10000

Further lines, results first:

EC50 [nM]	Compound
< 1000	C=C(C)c1cc(-c2ccc(-c3cccc(S(C)(=O)=O)c3)s2)n(-c2ccccc2Cl)n1 [Example 123, 1-(2-chlorophenyl)-5-(5-(3-(methylsulfonyl)phenyl)thiophen-2-yl)-3-(prop-1-en-2-yl)-1H-pyrazole]
1000 to 10000	CS(=O)(=O)c1cccc(-c2ccc(-c3cc(CNc4cc[nH]c(=S)n4)nn3-c3ccccc3Cl)s2)c1 [Example 545, 4-({[1-(2-chlorophenyl)-5-{5-[3-(methylsulfonyl)phenyl]-2-thienyl}-1H-pyrazol-3-yl]methyl}amino)pyrimidine-2(1H)-thione]
1000 to 10000	CN(C)CCN(C)C(=O)c1cc(-c2ccc(-c3cccc(S(C)(=O)=O)c3)s2)n(-c2ccccc2Cl)n1 [Example 1144, 1-(2-chlorophenyl)-N-[2-(dimethylamino)ethyl]-N-methyl-5-{5-[3-(methylsulfonyl)phenyl]-2-thienyl}-1H-pyrazole-3-carboxamide]
< 1000	CC(O)(c1cc(-c2ccc(-c3cccc(S(C)(=O)=O)c3)s2)n(-c2ccccc2Cl)n1)C(F)(F)F (stereo not drawn) [Example 1181, 2-[1-(2-chlorophenyl)-5-{5-[3-(methylsulfonyl)phenyl]-2-thienyl}-1H-pyrazol-3-yl]-1,1,1-trifluoropropan-2-ol]
< 1000	CC(C)(O)c1cc(-c2ccc(-c3cccc(S(C)(=O)=O)c3)s2)n(-c2c(F)cccc2Cl)n1 [Example 1344, 2-[1-(2-chloro-6-fluorophenyl)-5-{5-[3-(methylsulfonyl)phenyl]-2-thienyl}-1H-pyrazol-3-yl]propan-2-ol]
< 1000	CS(=O)(=O)c1cccc(-c2ccc(-c3cc(C(=S)NCC(F)(F)F)nn3-c3ccccc3Cl)s2)c1 [Example 1277, 1-(2-chlorophenyl)-5-{5-[3-(methylsulfonyl)phenyl]-2-thienyl}-N-(2,2,2-trifluoromethyl)-1H-pyrazole-3-carbothioamide]
< 1000	CC(C)(O)c1cc(-c2ccc(-c3cc(C(F)(F)F)nn3-c3ccccc3Cl)s2)cc(S(C)(=O)=O)c1 [Example 1318, 2-[3-{5-[1-(2-chlorophenyl)-3-(trifluoromethyl)-1H-pyrazol-5-yl]-2-thienyl}-5-(methylsulfonyl)phenyl]propan-2-ol]
1000 to 10000	CC(=O)c1cccc(-c2ccc(-c3cc(C(C)(C)O)nn3-c3ccccc3Cl)s2)c1 [Example 755, 1-(3-{5-[1-(2-chlorophenyl)-3-(1-hydroxy-1-methylethyl)-1H-pyrazol-5-yl]-2-thienyl}phenyl)ethanone]
1000 to 10000	CC(C)(N)c1cc(-c2ccc(-c3cccc(S(C)(=O)=O)c3)s2)n(-c2ccccc2Cl)n1 [Example 1151, 2-[1-(2-chlorophenyl)-5-{5-[3-(methylsulfonyl)phenyl]-2-thienyl}-1H-pyrazol-3-yl]propan-2-amine]
